# In patent publication US12077503B2, “Substituted cyclic amides and their use as herbicides” (FMC CORPORATION, priority 2015, dated 2024):
# Experiments:
# Format in all cases: in vivo
# [1] = system: ragweed (common ragweed, Ambrosia elatior); assay: Test A preemergence; conditions: Ambrosia artemisiifolia, pre-emergence, 240 h, preemergence, 0 to 100 scale where 0 is no effect and 100 is complete control, read-out: Ragweed plant response rating; for pest or weed control at 125 g/ha: 125 g ai/ha, approx. 10 d; for pest or weed control at 500 g/ha: 500 g ai/ha
# How it was run: (§1)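 Each rating is a visual injury score from 0 to 100 given about 10 d after treatment, judged against untreated controls kept alongside in the greenhouse. In loam soil–sand blend, seeds got a preemergence directed soil spray, while postemergence plants were 2 to 10 cm tall at spraying.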
# [2] = system: ragweed (common ragweed, Ambrosia elatior); assay: Test A postemergence; conditions: Ambrosia artemisiifolia, post-emergence, 240 h, postemergence; for pest or weed control at 125 g/ha: 125 g ai/ha, visual injury vs untreated controls after approx. 10 d, 0 = no effect, 100 = complete control, read-out: Ragweed plant response rating (0 to 100 scale); for pest or weed control at 500 g/ha: 500 g ai/ha, 0 to 100 scale, 0 is no effect, 100 is complete control, read-out: Ragweed plant response rating
# How it was run: as §1
# [3] = system: giant foxtail (Setaria faberii); assay: Test A postemergence; conditions: Setaria faberi, post-emergence, 240 h, postemergence; for pest or weed control at 125 g/ha: 125 g ai/ha, visual injury vs untreated controls after approx. 10 d, 0 = no effect, 100 = complete control, read-out: Foxtail, Giant plant response rating (0 to 100 scale); for pest or weed control at 500 g/ha: 500 g ai/ha, 0 to 100 scale, 0 is no effect, 100 is complete control, read-out: Foxtail, Giant plant response rating
# How it was run: as §1
# [4] = system: pigweed (Amaranthus retroflexus); assay: Test A postemergence; conditions: Amaranthus retroflexus, post-emergence, 240 h, postemergence; for pest or weed control at 125 g/ha: 125 g ai/ha, visual injury vs untreated controls after approx. 10 d, 0 = no effect, 100 = complete control, read-out: Pigweed plant response rating (0 to 100 scale); for pest or weed control at 500 g/ha: 500 g ai/ha, 0 to 100 scale, 0 is no effect, 100 is complete control, read-out: Pigweed plant response rating
# How it was run: as §1
# [5] = system: Galium (catchweed bedstraw, Galium aparine); assay: Test A postemergence; conditions: Galium, post-emergence, 240 h, postemergence; for pest or weed control at 125 g/ha: 125 g ai/ha, visual injury vs untreated controls after approx. 10 d, 0 = no effect, 100 = complete control, read-out: Galium plant response rating (0 to 100 scale); for pest or weed control at 500 g/ha: 500 g ai/ha, 0 to 100 scale, 0 is no effect, 100 is complete control, read-out: Galium plant response rating
# How it was run: as §1
# [6] = system: ryegrass, Italian (Italian ryegrass, Lolium multiflorum); assay: Test A postemergence; conditions: Lolium multiflorum, post-emergence, 240 h, postemergence; for pest or weed control at 125 g/ha: 125 g ai/ha, visual injury vs untreated controls after approx. 10 d, 0 = no effect, 100 = complete control, read-out: Ryegrass, Italian plant response rating (0 to 100 scale); for pest or weed control at 500 g/ha: 500 g ai/ha, 0 to 100 scale, 0 is no effect, 100 is complete control, read-out: Ryegrass, Italian plant response rating
# How it was run: as §1
# [7] = system: barnyardgrass (Echinochloa crus-galli); assay: Test A postemergence; conditions: Echinochloa crus-galli, post-emergence, 240 h, postemergence; for pest or weed control at 125 g/ha: 125 g ai/ha, visual injury vs untreated controls after approx. 10 d, 0 = no effect, 100 = complete control, read-out: Barnyardgrass plant response rating (0 to 100 scale); for pest or weed control at 500 g/ha: 500 g ai/ha, 0 to 100 scale, 0 is no effect, 100 is complete control, read-out: Barnyardgrass plant response rating
# How it was run: as §1
# [8] = system: wheat (Triticum aestivum); assay: Test A postemergence; conditions: Triticum aestivum, post-emergence, 240 h, postemergence; for plant injury at 125 g/ha: 125 g ai/ha, visual injury vs untreated controls after approx. 10 d, 0 = no effect, 100 = complete control, read-out: Wheat plant response rating (0 to 100 scale); for plant injury at 500 g/ha: 500 g ai/ha, 0 to 100 scale, 0 is no effect, 100 is complete control, read-out: Wheat plant response rating
# How it was run: as §1
# [9] = system: blackgrass (Alopecurus myosuroides); assay: Test A postemergence; conditions: Alopecurus myosuroides, post-emergence, 240 h, postemergence; for pest or weed control at 125 g/ha: 125 g ai/ha, visual injury vs untreated controls after approx. 10 d, 0 = no effect, 100 = complete control, read-out: Blackgrass plant response rating (0 to 100 scale); for pest or weed control at 500 g/ha: 500 g ai/ha, 0 to 100 scale, 0 is no effect, 100 is complete control, read-out: Blackgrass plant response rating
# How it was run: as §1
# Kochia (Kochia scoparia) = assay: Test A postemergence; conditions: Bassia scoparia, post-emergence, 240 h, postemergence; for pest or weed control at 125 g/ha: 125 g ai/ha, visual injury vs untreated controls after approx. 10 d, 0 = no effect, 100 = complete control, read-out: Kochia plant response rating (0 to 100 scale); for pest or weed control at 500 g/ha: 500 g ai/ha, 0 to 100 scale, 0 is no effect, 100 is complete control, read-out: Kochia plant response rating
# How it was run: as §1
# corn (Zea mays) = assay: Test A postemergence; conditions: Zea mays, post-emergence, 240 h, postemergence; for plant injury at 125 g/ha: 125 g ai/ha, visual injury vs untreated controls after approx. 10 d, 0 = no effect, 100 = complete control, read-out: Corn plant response rating (0 to 100 scale); for plant injury at 500 g/ha: 500 g ai/ha, 0 to 100 scale, 0 is no effect, 100 is complete control, read-out: Corn plant response rating
# How it was run: as §1
# [10] = system: barnyardgrass (Echinochloa crus-galli); assay: Test B flooded paddy test; conditions: Echinochloa crus-galli, 250 g ai/ha, Flood; 0 to 100 scale where 0 is no effect and 100 is complete control; read-out: Barnyardgrass plant response rating
# How it was run: (§2)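 Compound goes directly into floodwater once pots are flooded 3 cm above soil, targeting plants at two leaves; the water depth is then held for the test duration. Plants sit 13–15 d in a greenhouse and are rated visually, 100 denoting complete control.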
# [11] = system: ducksalad (Heteranthera limosa); assay: Test B flooded paddy test; conditions: Heteranthera limosa, 250 g ai/ha, Flood; 0 to 100 scale where 0 is no effect and 100 is complete control; read-out: Ducksalad plant response rating
# How it was run: as §2
# rice (Oryra sativa) = assay: Test B flooded paddy test; conditions: Oryza sativa, 250 g ai/ha, Flood; 0 to 100 scale where 0 is no effect and 100 is complete control; read-out: Rice plant response rating
# How it was run: as §2
# [12] = system: sedge, umbrella (small-flower umbrella sedge, Cyperus difformis); assay: Test B flooded paddy test; conditions: Cyperus difformis, 250 g ai/ha, Flood; 0 to 100 scale where 0 is no effect and 100 is complete control; read-out: Sedge, Umbrella plant response rating
# How it was run: as §2
SMILES,pest or weed control at 125 g/ha [1],pest or weed control at 500 g/ha [1],pest or weed control at 125 g/ha [2],pest or weed control at 500 g/ha [2],pest or weed control at 125 g/ha [3],pest or weed control at 500 g/ha [3],pest or weed control at 125 g/ha [4],pest or weed control at 500 g/ha [4],pest or weed control at 125 g/ha [5],pest or weed control at 500 g/ha [5],pest or weed control at 125 g/ha [6],pest or weed control at 500 g/ha [6],pest or weed control at 125 g/ha [7],pest or weed control at 500 g/ha [7],plant injury at 125 g/ha [8],plant injury at 500 g/ha [8],pest or weed control at 125 g/ha [9],pest or weed control at 500 g/ha [9],pest or weed control at 125 g/ha (Kochia (Kochia scoparia)),pest or weed control at 500 g/ha (Kochia (Kochia scoparia)),further results
CCc1cc([C@H]2CN(C)C(=O)[C@@H]2C(=O)Nc2ccccc2F)cs1 [Compound 1156],100%,100%,0%,0%,90%,90%,0%,0%,40%,50%,20%,30%,90%,90%,20%,50%,0%,40%,0%,20%,plant injury at 125 g/ha (corn (Zea mays)): 20%; plant injury at 500 g/ha (corn (Zea mays)): 60%; pest or weed control at 250 g/ha [10]: 40%; pest or weed control at 250 g/ha [11]: 100%; pest or weed control at 250 g/ha (rice (Oryra sativa)): 20%; pest or weed control at 250 g/ha [12]: 0%
O=C1NCC[C@H](c2cccc(Cl)c2)[C@H]1C(=O)Nc1ccccc1F [Compound 1159],0%,0%,0%,0%,40%,70%,0%,20%,20%,20%,0%,0%,90%,90%,0%,0%,0%,0%,0%,0%,plant injury at 125 g/ha (corn (Zea mays)): 0%; plant injury at 500 g/ha (corn (Zea mays)): 20%; pest or weed control at 250 g/ha [10]: 0%; pest or weed control at 250 g/ha [11]: 70%; pest or weed control at 250 g/ha (rice (Oryra sativa)): 0%; pest or weed control at 250 g/ha [12]: 0%
